Reference: patent US12030893B2, “Near-infrared nerve-sparing benzo[c]phenoxazine fluorophores” (OREGON HEALTH & SCIENCE UNIVERSITY, priority 2018, dated 2024)

Assays:
[1] = system: murine brachial plexus and sciatic nerves; experiment: In vivo nerve-specificity screening via direct/topical administration; parameters: species or system mice; conditions: 500 μM in co-solvent formulation, 100 μL incubated 5 minutes on exposed nerve, imaged 30 minutes after staining; selected for further systemic screening
Description: Each compound was screened for its tissue-specificity using a previously published direct/topical administration strategy in murine brachial plexus and sciatic nerves.^1 Each compound from the benzo[c]phenoxazine library was formulated in the previously utilized co-solvent formulation (10% DMSO, 5% Kolliphor, 65% serum and 20% phosphate buffered saline) at 500 μM. 100 μL of the formulated Oxazine were incubated on the exposed brachial plexus or sciatic nerve for 5 minutes. The fluorophore containing solution was removed and the area was irrigated with saline 18 times to remove any unbound fluorophore. Co-registered fluorescence and color images were collected of each stained area 30 minutes after benzo[c]phenoxazine direct/topical administration using a custom built macroscopic imaging system with 710/75 nm excitation and 810 nm longpass emission filters. Custom written MatLab code was used to analyze the tissue specific fluorescence where regions of interest were selected on the nerve, muscle, cut muscle and adipose tissue using the white light images. These regions of interest were then analyzed on the co-registered matched fluorescence images permitting assessment of the nerve-to-muscle, nerve-to-cut muscle, and nerve-to-adipose ratios in blinded manner.
(§1) In vivo nerve-specificity screening of the benzo[c]phenoxazine derivative library. Each compound was screened for its tissue-specificity using a direct administration strategy (Barth & Gibbs, Theranostics 7, 573-593 (2017)) where nerve contrast was examined in murine brachial plexus and sciatic nerves. The benzo[c]phenoxazine derivatives were solubilized for in vivo use in the previously described co-solvent formulation (Gibbs-Strauss et al., Molecular imaging 10, 91-101 (2011)). The previously optimized staining procedure was utilized (Gibbs et al., PloS one 8, e73493 (2013)), which is described briefly as follows. The brachial plexus and sciatic nerves were surgically exposed by removal of overlaying adipose and muscle tissues. The benzo[c]phenoxazine compound was formulated at 500 μM in the co-solvent formulation and 100 μL was incubated on the exposed brachial plexus or sciatic nerve for 5 minutes. The fluorophore containing solution was removed and the area was irrigated with saline nine times, followed by a five-minute incubation with blank formulation and then irrigation with saline nine more times to remove any unbound fluorophore. Images were acquired 30 minutes following completion of staining. Unstained nerve sites were used for all control images to quantify autofluorescence. Each benzo[c]phenoxazine derivative was screened in n=3 mice or 6 nerve sites/fluorophore. The quantified tissue fluorescence intensities following direct administration of the fluorophores were used to calculate nerve-to-muscle, nerve-to-cut muscle, and nerve-to-adipose ratios as metrics of nerve contrast. […] Uninjected animals were used for all control images to quantify autofluorescence. Similarly to quantification protocol for the direct administration, the quantified tissue fluorescence intensities following systemic administration of the fluorophores were used to calculate nerve-to-muscle and nerve-to-adipose ratios as metrics of nerve contrast. […]
Intraoperative fluorescence imaging systems. A custom-built small animal imaging system capable of real-time color and fluorescence imaging was used to acquire in vivo rodent images (Hackman et al., Molecular pharmaceutics (2015)). […]

[2] = system: murine brachial plexus and sciatic nerves; experiment: In vivo nerve-specificity screening via systemic administration; parameters: species or system mice; conditions: 500 nmol intravenously in co-solvent formulation; sacrificed at 0.5 h, 1 h, 2 h, 4 h
Description: Each compound was screened for its tissue-specificity using a previously published systemic administration strategy in murine brachial plexus and sciatic nerves.^1 Each compound from the benzo[c]phenoxazine library was formulated in the previously utilized co-solvent formulation (10% DMSO, 5% Kolliphor, 65% serum and 20% phosphate buffered saline) at 2.5 mM. 200 μL of the formulated fluorophore was administered intravenously before exposing the brachial plexus and sciatic nerves. Co-registered fluorescence and color images were collected of each nerve site using a custom built macroscopic imaging system with 710/75 nm excitation and 810 nm longpass emission filters. Custom written MatLab code was used to analyze the tissue specific fluorescence where regions of interest were selected on the nerve, muscle and adipose tissue using the white light images. These regions of interest were then analyzed on the co-registered matched fluorescence images permitting assessment of the nerve to muscle and nerve to adipose ratios in blinded manner.
as §1, with “The brachial plexus and sciatic nerves were surgically exposed by removal of overlaying adipose and muscle tissues. The benzo[c]phenoxazine compound was formulated at 500 μM in the co-solvent formulation and 100 μL was incubated on the exposed brachial plexus or sciatic nerve for 5 minutes. The fluorophore containing solution was removed and the area was irrigated with saline nine times, followed by a five-minute incubation with blank formulation and then irrigation with saline nine more times to remove any unbound fluorophore. Images were acquired 30 minutes following completion of staining.” left out, “Each benzo[c]phenoxazine derivative was screened in n=3 mice or 6 nerve sites/fluorophore.” left out
Intraoperative fluorescence imaging systems. A custom-built small animal imaging system capable of real-time color and fluorescence imaging was used to acquire in vivo rodent images (Hackman et al., Molecular pharmaceutics (2015)). Briefly, the imaging system consisted of a QImaging EXi Blue monochrome camera (Surrey, British Columbia, CA) for fluorescence detection with a removable Bayer filter for collection of co-registered color and fluorescence images. […]

[3] = longest among reported nerve-specific fluorophores; cited from earlier work

Compound	outcome of nerve-specificity screening (nerve-to-muscle, nerve-to-cut muscle, nerve-to-adipose ratios) following direct administration [1]	outcome of nerve-specificity screening (nerve-to-muscle, nerve-to-adipose ratios) following systemic administration [2]	emission wavelength maximum [3]
CCN(CC)c1ccc2c3c(ccc2c1)N=c1cc2c(cc1O3)=NCCC2 [LGW07-14, 3-(diethylamino)-10,11-dihydro-9H-benzo[h]pyrido[3,2-b]phenoxazin-12-ium]	lead candidates	selected as lead benzo[c]phenoxazine nerve-specific fluorophores	–
CCN(CC)c1ccc2c(ccc3nc4ccc(=[N+](C)C)cc-4oc32)c1 [LGW07-92, N-(3-(diethylamino)-10H-benzo[c]phenoxazin-10-ylidene)-N-methylmethanaminium]	lead candidates	–	–
CC/N=c1\ccc2nc3ccc4cc(N(CC)CC)ccc4c3oc-2c1C [LGW08-35, (E)-N-(3-(diethylamino)-11-methyl-10H-benzo[c]phenoxazin-10-ylidene)ethanaminium]	lead candidates	selected as lead benzo[c]phenoxazine nerve-specific fluorophores	–
CC/N=c1/cc2oc3c(ccc4cc(N(CC)CC)ccc43)nc-2c(C)c1 [LGW08-46, (E)-N-(3-(diethylamino)-8-methyl-10H-benzo[c]phenoxazin-10-ylidene)ethanaminium]	lead candidates	selected as lead benzo[c]phenoxazine nerve-specific fluorophores	–
CC/N=c1/cc2oc3c(ccc4cc(N(CC)CC)ccc43)nc-2cc1C [LGW 05-25, (Z)—N-(3-(diethylamino)-9-methyl-10H-benzo[c]phenoxazin-10-ylidene)ethanaminium]	lead candidates	selected as lead benzo[c]phenoxazine nerve-specific fluorophores	–
CC/N=c1/cc2oc3cc(NCC)c(C)cc3nc-2cc1C [Oxazine 4]	–	–	635 nm
